Test results: US8168597B2, “Method for treating cystic fibrosis” (Inspire Pharmaceuticals, Inc., priority 2008, dated 2012)

System: patients with mild CF lung disease
Assay: Multi-center, double-blind, randomized efficacy and safety study; change in lung function (FEV1) from baseline to Week 24
Type: in vivo, human
Conditions: for FEV1 Change from baseline in Liters, Mean (Table 2): subgroups that did not take pulmozyme or inhaled antibiotics; for FEV1 Change from baseline in Liters, Mean (Table 3): pulmozyme/macrolide subgroups
Method: This is a multi-center, double-blind, randomized, efficacy and safety study of denufosol in patients with mild CF lung disease. Approximately 350 patients were enrolled and randomly assigned to receive one of two treatments, 60 mg denufosol TID or placebo TID, with approximately 175 patients assigned to each treatment group. Patients were administered study drug (denufosol) or placebo using the PARI LC STAR™ nebulizer and PART PRONEB Ultra™ compressor. At the end of the 24-week double-blind, placebo-controlled treatment period, placebo patients received 60 mg denufosol for a 24-week safety extension period. All patients on denufosol during the first 24 weeks continued to receive denufosol during the 24-week safety extension. Upon completion of study participation or discontinuation from study treatment, all patients were scheduled for a 1-week follow-up visit.
In general, CF patients took many medications as their usual standard of care. This study was designed to randomly assign patients either to denufosol or placebo on top of their usual standard of care. […] Patients were instructed whenever possible to use these medications consistently throughout the study.
All patients were instructed to inhale the study drug using normal tidal breathing via the PARI LC STAR™ reusable nebulizer and the PARI PRONEB™ Ultra compressor. A dose was considered complete after 15 minutes of inhalation or when the nebulizer sputters. Study drug was taken TID at the same time each day.
Primary efficacy endpoint was change in lung function, as measured by FEV1 (L), from baseline to Week 24 end point. Missing Week 24 data for patients who withdrew prior to Week 24 were imputed from the last available observation carried forward. Secondary efficacy endpoints included the following: time to first pulmonary exacerbation during the 24-week placebo-controlled treatment period; incidence of pulmonary exacerbations during the 24-week placebo-controlled treatment period; number of pulmonary exacerbations/time at risk (incidence density) during the 24-week placebo-controlled treatment period; change in lung function, as measured by FEV1 (L) from baseline to Weeks 4 and 12, and FVC (L) and FEF25%-75% (L/sec) from baseline to Weeks 4, 12, 24, and the end point. Other secondary efficacy endpoints include incidence of IV antibiotic use during the 24-week placebo-controlled treatment period; number of days of IV antibiotic use during the 24-week placebo-controlled treatment period; incidence of new use of antipseudomonal antibiotics during the 24-week placebo-controlled treatment period; incidence of hospitalizations/ER visits for a respiratory-related complaint during the 24-week placebo-controlled treatment period; number of days spent in the hospital for a respiratory-related complaint during the 24-week placebo-controlled treatment period; changes from baseline to Weeks 12 and 24 in Health-related Quality of Life as measured by the Cystic Fibrosis Questionnare and the Feeling Thermometer; and changes in utility assessment from baseline to Weeks 12 and 24 as measured by the Health Utilities Index; number of CF-related days lost from work or school during the 24-week placebo-controlled treatment period; and responses at Week 24 to the Patient Questionnaire.

Molecule	FEV1 Change from baseline in Liters, Mean (Table 2) (baseline to Week 24)	adjusted means for change in lung function, as measured by FEV1, from baseline to Week 24 (macrolide users (97% azithromycin), 60 mg denufosol TID by inhalation, p-value 0.047 vs placebo group)	improvement in FEV1 change in the macrolide group when treated with denufosol (vs placebo group) (macrolide users, baseline to Week 24)	FEV1 Change from baseline in Liters, Mean (Table 3) (baseline to Week 24)
Nc1ccn([C@H]2C[C@H](O)[C@@H](COP(=O)(O)OP(=O)(O)OP(=O)(O)OP(=O)(O)OC[C@H]3O[C@@H](n4ccc(=O)[nH]c4=O)[C@H](O)[C@@H]3O)O2)c(=O)n1 [Denufosol, P^1-(uridine 5′-)-P^4-(2′-deoxycytidine 5′-) tetraphosphate]	0.0494 L	0.0288 L	+0.0745 L	
CC[C@H]1OC(=O)[C@H](C)[C@@H](O[C@H]2C[C@@](C)(OC)[C@@H](O)[C@H](C)O2)[C@H](C)[C@@H](O[C@@H]2O[C@H](C)C[C@H](N(C)C)[C@H]2O)[C@](C)(O)C[C@@H](C)CN(C)[C@H](C)[C@@H](O)[C@]1(C)O [Macrolide (Azithromycin), azithromycin, reference compound]	0.0430 L			0.0430 L
Pulmozyme: CF medication taken as usual standard of care (alfa dornase) (protein, UniProt P24855 23-282, looked up) Deoxyribonuclease-1: LKIAAFNIQTFGETKMSNATLVSYIVQILSRYDIALVQEVRDSHLTAVGKLLDNLNQDAPDTYHYVVSEPLGRNSYKERYLFVYRPDQVSAVDSYYYDDGCEPCGNDTFNREPAIVRFFSRFTEVREFAIVPLHAAPGDAVAEIDALYDVYLDVQEKWGLEDVMLMGDFNAGCSYVRPSQWSSIRLWTSPTFQWLIPDSADTTATPTHCAYDRIVVAGMLLRGAVVPDSALPFNFQAAYGLSDQLAQAISDHYPVEVMLK				0.0659 L
